What was measured:
Type in all cases: cell-based
DU145 = test: Proliferation assay (crystal violet), DU145; conditions: Homo sapiens, DU-145, 96 h; DU145 cells; 4 days incubation; crystal violet staining; read-out: IC50 inhibition of proliferation, DU145
How it was run: (§1)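 Cells plated at 1000-5000/well with 10% FCS, treated after 24 h with compound at 0.001-10 μM (0.5% DMSO) for 4 days. Glutaraldehyde-fixed, crystal violet-stained, A595 normalised to zero-point plate (0%) and untreated cells (100%); IC50 by 4-parameter fit.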

B16F10 = test: Proliferation assay (crystal violet), B16F10; conditions: Mus musculus, B16-F10, 96 h; B16F10 cells; 4 days incubation; crystal violet staining; read-out: IC50 inhibition of proliferation, B16F10
How it was run: as §1

Caco-2 = test: Proliferation assay (crystal violet), Caco-2; conditions: Homo sapiens, 96 h; Caco-2 cells; 4 days incubation; crystal violet staining; read-out: IC50 inhibition of proliferation, Caco2
How it was run: as §1

HeLa-MaTu-ADR = test: Proliferation assay (crystal violet), HeLa-MaTu-ADR; conditions: 96 h; HeLa-MaTu-ADR cells; 4 days incubation; crystal violet staining; read-out: IC50 inhibition of proliferation, HeLa-MaTu-ADR
How it was run: as §1

NCI-H460 = test: Proliferation assay (crystal violet), NCI-H460; conditions: Homo sapiens, 96 h; NCI-H460 cells; 4 days incubation; crystal violet staining; read-out: IC50 inhibition of proliferation, NCI-H460
How it was run: as §1

Row | SMILES | IC50 (DU145) [nM] | IC50 (B16F10) [nM] | IC50 (Caco-2) [nM] | IC50 (HeLa-MaTu-ADR) [nM] | IC50 (NCI-H460) [nM]
1 | COCCOc1ccc(NC(=O)c2c(C)nsc2Nc2nc3c(C(F)(F)F)cccc3s2)cc1F [Example 1, N-[3-Fluoro-4-(2-methoxyethoxy)phenyl]-3-methyl-5-{[4-(trifluoromethyl)-1,3-benzothiazol-2-yl]amino}-1,2-thiazole-4-carboxamide] | 440 | 410 | 260 | 370 | 240
2 | Cc1nsc(Nc2cnc(C(F)(F)F)cn2)c1C(=O)Nc1ccc(OC2CCN(C(=O)OC(C)(C)C)CC2)nc1 [Example 5, tert-Butyl 4-[(5-{[(3-methyl-5-{[5-(trifluoromethyl)pyrazin-2-yl]amino}-1,2-thiazol-4-yl)carbonyl]amino}pyridin-2-yl)oxy]piperidine-1-carboxylate] | 520 | 350 | 350 | 370 | 250
3 | Cc1nsc(Nc2ccc(C#N)cn2)c1C(=O)Nc1ccc(OC2CCCN(C(=O)OC(C)(C)C)C2)nc1 (stereo not drawn) [Example 36, tert-Butyl 3-({5-[({5-[(5-cyanopyridin-2-yl)amino]-3-methyl-1,2-thiazol-4-yl}-carbonyl)amino]pyridin-2-yl}oxy)piperidine-1-carboxylate] | 860 | 550 | 330 | 330 | 400
4 | Cc1nsc(Nc2ccc(C#N)cn2)c1C(=O)Nc1ccc(OC2CCCN(CC(F)F)C2)nc1 (stereo not drawn) [Example 39, 5-[(5-Cyanopyridin-2-yl)amino]-N-(6-{[1-(2,2-difluoroethyl)piperidin-3-yl]oxy}-pyridin-3-yl)-3-methyl-1,2-thiazole-4-carboxamide] | 2000 | 2200 | 1500 | 810 | 990
5 | Cc1nsc(Nc2ccc(C#N)cn2)c1C(=O)Nc1ccc(OC2CCCN(CC(F)(F)F)C2)nc1 (stereo not drawn) [Example 40, 5-[(5-Cyanopyridin-2-yl)amino]-3-methyl-N-(6-{[1-(2,2,2-trifluoroethyl)piperidin-3-yl]oxy}pyridin-3-yl)-1,2-thiazole-4-carboxamide] | 660 | 780 | 500 | 320 | 360
6 | Cc1nsc(Nc2cnc3ccccc3n2)c1C(=O)Nc1cccc(C(=O)OC(C)(C)C)c1 [Example 49, tert-Butyl 3-({[3-methyl-5-(quinoxalin-2-ylamino)-1,2-thiazol-4-yl]carbonyl}amino)-benzoate] | 1100 | 910 | 650 | 590 | 460

From patent US20170334899A1, “AMINO-SUBSTITUTED ISOTHIAZOLES” (Bayer Pharma Aktiengesellschaft, priority 2014, published 2017)
